# Structures can show the parent of a compound that is named as a salt.
# Assay: Plasma timecourse of N-MNLX following PO administration to rat
# Format: in vivo, male Sprague-Dawley rats
# Conditions: oral dosing in rats; Cmax and/or persistence of exposure compared with N-MNLX itself
# Description: (§1) Plasma Timecourse of Peripheral Phenolic Opioid Antagonists Following PO Administration to Rat
# (§2) Oral dosing: The test compounds were dissolved in saline and dosed via oral gavage into jugular vein cannulated male Sprague-Dawley rats. N-MTX and N-MNLX, each at 20 mg/kg, were used as positive controls and the test compounds were dosed at the doses indicated in Tables 1 and 2. At specified time points, blood samples were withdrawn, quenched into methanol, centrifuged at 14000 rpm @ 4° C., and stored at −80° C. until analysis. Samples were quantified via LC/MS/MS using an ABI 3000 triple-quad mass spectrometer.
row,SMILES,"pharmacokinetic profile (e.g. oral bioavailability), N-MNLX"
1,"C=CC[N+]1(C)CC[C@]23c4c5ccc(O)c4O[C@H]2C(=O)CC[C@@]3(O)[C@H]1C5.[Br-] (stereo partly shown) [N-MNLX, N-methylnaloxone, reference compound]",poor pharmacokinetic profiles
2,"C=CC[N+]1(C)CC[C@]23c4c5ccc(OC(=O)N(C)CCN)c4O[C@H]2C(=O)CC[C@@]3(O)[C@H]1C5 (stereo partly shown) [Example 14, N-Methylnaloxone 3-(N-methyl-N-(2-aminoethyl))carbamate]",improved pharmacokinetic profile

# Assay: not given
# Conditions: rat, in vivo
row,SMILES,"pharmacokinetic profile (e.g. oral bioavailability), N-MTX"
1,"CN(CCN)C(=O)Oc1ccc2c3c1O[C@H]1C(=O)CC[C@@]4(O)[C@@H](C2)[N+](C)(CC2CC2)CC[C@]314.Cl.[Cl-] (stereo partly drawn) [Example 1, (R)—N-Methylnaltrexone 3-(N-methyl-N-(2-aminoethyl))carbamate]",improved pharmacokinetic profile

# Assay: Plasma timecourse of N-MTX following PO administration to rat
# Conditions: oral dosing in rats at the doses of Table 1
# Description: as §1, §2
row,SMILES,detectable levels of N-MTX
1,"C[C@H](NC(=O)CN)C(=O)NCCN(C)C(=O)Oc1ccc2c3c1O[C@H]1C(=O)CC[C@@]4(O)C(C2)[N@+](C)(CC2CC2)CC[C@]314 [Example 12, (R)—N-Methylnaltrexone 3-(N-methyl-N-(2-N-glycinylalaninylamino))-ethylcarbamate]",did not afford detectable levels of N-MTX
2,"CC(=O)N[C@@H](CCCNC(=N)N)C(=O)NCCN(C)C(=O)Oc1ccc2c3c1O[C@H]1C(=O)CC[C@@]4(O)C(C2)[N@+](C)(CC2CC2)CC[C@]314 [Example 4, (R)—N-Methylnaltrexone 3-(N-methyl-N-(2-N-acetylarginylamino))ethylcarbamate]",did not afford detectable levels of N-MTX
3,"C[C@H](N)C(=O)NCCN(C)C(=O)Oc1ccc2c3c1O[C@H]1C(=O)CC[C@@]4(O)C(C2)[N@+](C)(CC2CC2)CC[C@]314 [Example 8, (R)—N-Methylnaltrexone 3-(N-methyl-N-(2-N-alaninylamino))ethylcarbamate]",did not afford detectable levels of N-MTX
4,"CN(CCNC(=O)[C@@H](N)CC(N)=O)C(=O)Oc1ccc2c3c1O[C@H]1C(=O)CC[C@@]4(O)C(C2)[N@+](C)(CC2CC2)CC[C@]314 [Example 5, (R)—N-Methylnaltrexone 3-(N-methyl-N-(2-N-asparaginylamino))ethylcarbamate]",did not afford detectable levels of N-MTX
5,"CN(CCNC(=O)[C@@H](N)Cc1ccc(O)cc1)C(=O)Oc1ccc2c3c1O[C@H]1C(=O)CC[C@@]4(O)C(C2)[N@+](C)(CC2CC2)CC[C@]314 [Example 7, (R)—N-Methylnaltrexone 3-(N-methyl-N-(2-N-tyrosinylamino))ethylcarbamate]",did not afford detectable levels of N-MTX
6,"CN(CCNC(=O)[C@@H](N)CCCCN)C(=O)Oc1ccc2c3c1O[C@H]1C(=O)CC[C@@]4(O)C(C2)[N@+](C)(CC2CC2)CC[C@]314 [Example 9, (R)—N-Methylnaltrexone 3-(N-methyl-N-(2-N-lysinylamino))ethylcarbamate]",did not afford detectable levels of N-MTX

# Same assay, conditions: oral dosing in rats; Cmax and/or persistence of exposure compared with N-MTX itself
row,SMILES,"pharmacokinetic profile (e.g. oral bioavailability), N-MTX"
1,"CN(CCNC(=O)[C@@H](N)CC(=O)O)C(=O)Oc1ccc2c3c1O[C@H]1C(=O)CC[C@@]4(O)C(C2)[N@+](C)(CC2CC2)CC[C@]314 [Example 6, (R)—N-Methylnaltrexone 3-(N-methyl-N-(2-N-aspartinylamino))ethylcarbamate]",improved pharmacokinetic profile
2,"C[N@@+]1(CC2CC2)CC[C@]23c4c5ccc(O)c4O[C@H]2C(=O)CC[C@@]3(O)C1C5 [N-MTX, (R)—N-methylnaltrexone, reference compound]",poor pharmacokinetic profiles
3,"CC(=O)NCC(=O)N[C@@H](CCCNC(=N)N)C(=O)NCCN(C)C(=O)Oc1ccc2c3c1O[C@H]1C(=O)CC[C@@]4(O)C(C2)[N@+](C)(CC2CC2)CC[C@]314 [Example 11, (R)—N-Methylnaltrexone 3-(N-methyl-N-(2-N—(N-acetyl)glycinylarginylamino))-ethylcarbamate]",improved pharmacokinetic profile
4,"CN(CCNC(=O)[C@H](Cc1ccccc1)NC(=O)CN)C(=O)Oc1ccc2c3c1O[C@H]1C(=O)CC[C@@]4(O)C(C2)[N@+](C)(CC2CC2)CC[C@]314 [Example 13, (R)—N-Methylnaltrexone 3-(N-methyl-N-(2-N-glycinylphenylalaninylamino))-ethylcarbamate]",improved pharmacokinetic profile
5,"CN(CCNC(=O)[C@@H](N)CCCNC(=N)N)C(=O)Oc1ccc2c3c1O[C@H]1C(=O)CC[C@@]4(O)C(C2)[N@+](C)(CC2CC2)CC[C@]314 [Example 3, (R)—N-Methylnaltrexone 3-(N-methyl-N-(2-arginylamino))ethylcarbamate]",improved pharmacokinetic profile
6,"CC(C)C[C@H](N)C(=O)NCCN(C)C(=O)Oc1ccc2c3c1O[C@H]1C(=O)CC[C@@]4(O)C(C2)[N@+](C)(CC2CC2)CC[C@]314 [Example 2, (R)—N-Methylnaltrexone 3-(N-methyl-N-(2-leucinylamino))ethylcarbamate Hydrochloride]",improved pharmacokinetic profile
7,"CN(CCNC(=O)[C@H](CCCNC(=N)N)NC(=O)CN)C(=O)Oc1ccc2c3c1O[C@H]1C(=O)CC[C@@]4(O)C(C2)[N@+](C)(CC2CC2)CC[C@]314 [Example 10, (R)—N-Methylnaltrexone 3-(N-methyl-N-(2-N-glycinylarginylamino))ethylcarbamate]",improved pharmacokinetic profile
